≈ marks a conversion by molar mass, not a printed value. Where two headings read alike, the source gives them in different places.
Experiments:
P. aeruginosa 4007 = assay: microbe, parasite or virus in culture; settings: Pseudomonas aeruginosa, 4007, 18 h, read-out: Minimal inhibitory concentration
Experimental: (§1) In order to evaluate the antimicrobial activity of the peptides prepared by the method of above 1, a minimal inhibitory concentration (MIC) value as the minimum concentration of a peptide, in which cells are not divided, was measured.
(§2) Specifically, the strains shown in Table 3 below were purchased, cultured in a medium having a constitutional composition suitable for each strain to a mid-log phase, and then diluted to a concentration of 2×10^4 cells/100 μl to prepare the product on a micro-titration plate (Nunc, USA). Then, PEP27, PEP27-1, PEP27-2 or PEP27-5 peptide synthesized in the above 1 was added to each well by serial dilution ½ times, followed by incubation at 37° C. for 18 hours.
(§3) Specifically, subject strains were prepared by the method of above 2, and were treated with the antibiotics, that is, meropenem, ceftazidime, ceftriaxone or vancomycin, respectively, followed by determining MICs of the antibiotics.

P. aeruginosa 4891 = assay: microbe, parasite or virus in culture; settings: Pseudomonas aeruginosa, 4891, 18 h, read-out: Minimal inhibitory concentration
Experimental: as §1, §2, §3

P. aeruginosa ATCC15692 = assay: microbe, parasite or virus in culture; settings: Pseudomonas aeruginosa, ATCC15692, 18 h, read-out: Minimal inhibitory concentration
Experimental: as §1, §2, §3

P. aeruginosa ATCC27853 = assay: microbe, parasite or virus in culture; settings: Pseudomonas aeruginosa, ATCC27853, 18 h, read-out: Minimal inhibitory concentration
Experimental: as §1, §2, §3

S. aureus ATCC25923 = assay: microbe, parasite or virus in culture; settings: Staphylococcus aureus, ATCC25923, 18 h, read-out: Minimal inhibitory concentration
Experimental: as §1, §2, §3

S. aureus ATCC29213 = assay: microbe, parasite or virus in culture; settings: Staphylococcus aureus, ATCC29213, 18 h, read-out: Minimal inhibitory concentration
Experimental: as §1, §2, §3

S. aureus CCARM3089 = assay: microbe, parasite or virus in culture; settings: Staphylococcus aureus, CCARM3089, 18 h, read-out: Minimal inhibitory concentration
Experimental: as §1, §2, §3

S. aureus CCARM3090 = assay: microbe, parasite or virus in culture; settings: Staphylococcus aureus, CCARM3090, 18 h, read-out: Minimal inhibitory concentration
Experimental: as §1, §2, §3

S. aureus CCARM3518 = assay: microbe, parasite or virus in culture; settings: Staphylococcus aureus, CCARM3518, 18 h, read-out: Minimal inhibitory concentration
Experimental: as §1, §2, §3

S. aureus MW2 = assay: microbe, parasite or virus in culture; settings: Staphylococcus aureus, MW2, 18 h, read-out: Minimal inhibitory concentration
Experimental: as §1, §2, §3

S. aureus USA300 = assay: microbe, parasite or virus in culture; settings: Staphylococcus aureus, USA300, 18 h, read-out: Minimal inhibitory concentration
Experimental: as §1, §2, §3

[1] = system: Staphylococcus aureus MW2; format: in vivo, BALB/c mouse; settings: for reduction of the number of bacteria in abscess tissue: 0.2 mg/kg alone, injected 2 hours after infection
Experimental: The efficacy of PEP27-2, which is the peptide having the most excellent antimicrobial activity among the peptides prepared by the method of above 1 was evaluated in vivo using a mouse model.
Specifically, the epidermis on the back side (dorsal side) of 6-7 week old BALB/c mouse was infected with Staphylococcus aureus MW2 having GFP gene inserted therein (S. aureus MW2-GFP, 1×10^9 CFU/10 μl PBS). After 2 hours form infection, PEP27-2 alone (0.2 mg/kg, 50 μl), ceftriaxone alone (0.2 mg/kg, 50 μl) or a combination of the peptide and the antibiotic (0.05 mg/kg PEP27-2+0.1 mg/kg ceftriaxone, 50 μl) was injected. Further, the control mice were injected with the same amount of PBS ([…]) without peptide. On 1st, 2nd, 3rd, 4th, 5th and 7th days after treatment, the shape of abscess was photographed, and surrounding tissues as well as the abscess were gathered. The abscess tissue was homogenized in 500 μl of sterile PBS using a tissue grinder. A serial diluted solution of the homogenate was spread on an agar plate and cultured for 24 hours in order to quantify the Staphylococcus aureus MW2 strain.

[2] = system: Staphylococcus aureus MW2-GFP; format: in vivo, mouse; settings: up to 3 days after infection with 1×10^9 CFU
Experimental: For real-time tracking the progress of infection with regard to the peptide that has the most excellent antimicrobial activity among the peptides prepared by the method of above 1, fluorescence (GFP)-labeled Staphylococcus aureus MW2 (Staphylococcus aureus MW2-GFP) was used. Fluorescence images were taken from the beginning of infection to 6 hours, 1 day, 2 days and 3 days by means of an FOBI fluorescence imaging system (Neo Science, Suwon, Korea), followed by analysis thereof using live image software.

[3] = system: Staphylococcus aureus MW2; assay: Hematoxylin and eosin staining of abscess tissue; format: in vivo, mouse; settings: tissue on day 7, treated 2 hours after infection
Excerpt: Among tissues on the abscess portion and infected portion gathered in the above 13, the tissue on day 7 was fixed with 4% buffered formalin. The infection portion or abscess portion fixed with formalin was embedded in paraffin, while staining a fragment of the cross-section with hematoxylin and eosin.

[4] = system: TNF-α, IL-1β, IL-6, iNOS and COX-2; assay: Pro-inflammatory cytokine gene expression in abscess tissue, qPCR; format: in vivo, mouse; settings: mRNA relative to β-actin
Experimental: For mice not infected with bacteria, infected mice, and mice subjected to treatment using PEP27-2 alone, ceftriaxone alone or a combination thereof after infection, the expression of inflammatory genes in the mice were measured thus to verify the efficacy of each of PEP27-2 single treatment and combination treatment with antibiotics.
Specifically, total RNA was isolated from wound tissues using Trizol reagent. From the prepared total RNA, cDNA was synthesized using a cDNA synthesis kit. qPCR was implemented using qPCR 2× premix (SYBR Green), followed by determining expression amounts of TNF-α, IL-1β, IL-6, iNOS and COX-2 among inflammatory genes. Expression levels were quantified based on β-actin, and the PCR process was conducted as followed: at 50° C. for 2 minutes and at 95° C. for 10 minutes; 95° C. for 15 seconds, 60° C. for 1 minute, 40 cycles; 95° C. for 15 seconds, 60° C. for 1 minute, 95° C. for 30 seconds, and 60° C. for 15 seconds. The gene expression was calculated after standardization to β-actin level through ΔΔCt method.

HaCaT cells = assay: Cell absorption of peptide (fluorescence imaging); format: cell-based, human; settings: 5 μM, 1 hour
Experimental: With regard to the synthetic peptide prepared by the method of above 1, an ability of penetrating cells was determined through a phase-contrast microscope. Specifically, human keratinocyte line (HaCaT cells) was dispensed on a 6-well plate provided with a polylysine coating cover slip (SPL Life Sciences, Gyeonggi-do, Korea) at 2×10^5 cells/well and cultured for 24 hours, and then treated with fluorescein isothiocyanate (FITC)-labeled PEP27-2 (FITC-PEP27-2) at a concentration of 5 μM, followed by incubation in a 5% CO2 incubator for 1 hour. After 1 hour, a nucleus of the cell was treated and stained with Hoechst 33342 nucleic acid dye solution (Invitrogen, Carlsbad, CA, USA; 8 μM) for 10 minutes. After washing the stained product with PBS three times, fluorescence in the cells was imaged using a phase-contrast microscope (EVOS™ FL Auto 2 Imaging System, Thermo Fisher Scientific).

CO/N=C(\C(=O)N[C@@H]1C(=O)N2C(C(=O)O)=C(CSc3nc(=O)c(=O)[nH]n3C)CS[C@H]12)c1csc(N)n1 [Ceftriaxone, ceftriaxone]
MIC (P. aeruginosa 4007): 16 µM (≈ 8.87 µg/mL) | MIC (P. aeruginosa 4891): 64 µM (≈ 35.5 µg/mL) | MIC (P. aeruginosa ATCC15692): 16 µM (≈ 8.87 µg/mL) | MIC (P. aeruginosa ATCC27853): 8 µM (≈ 4.44 µg/mL) | MIC (S. aureus ATCC25923): 8 µM (≈ 4.44 µg/mL) | MIC (S. aureus ATCC29213): 4 µM (≈ 2.22 µg/mL) | MIC (S. aureus CCARM3089): 512 µM (≈ 284 µg/mL) | MIC (S. aureus CCARM3090): 512 µM (≈ 284 µg/mL) | MIC (S. aureus CCARM3518): 256 µM (≈ 142 µg/mL) | MIC (S. aureus MW2): 32 µM (≈ 17.7 µg/mL) | MIC (S. aureus USA300): 16 µM (≈ 8.87 µg/mL) | size of formed abscess ([1]; compared with infected group injected only with PBS, up to day 7): smaller than the experimental group in which only PBS was injected | reduction of the number of bacteria in abscess tissue ([1]; day 3): 46.0% | reduction of the number of bacteria in abscess tissue ([1]; day 7): 61.5% | fluorescence signal of S. aureus MW2-GFP at the abscess [2]: not reduced | number of visible scabs formed on the skin surface and number of bacteria [3]: markedly reduced | expression of inflammatory cytokines (TNF-α, IL-1β, IL-6, iNOS, COX-2) [4]: suppressed

GRKKRRQRRRPQ (TAT)
cellular absorption into HaCaT cells (HaCaT cells): absorbed into the cytoplasm and the nucleus of HaCaT cell

— patent US12180252B2, “Peptide derived from PEP27 peptide and uses thereof” (priority 2021, dated 2024)
